From patent US20250346585A1 (Alexion Pharmaceuticals, Inc., priority 2022, published 2025) come the findings set out here.

Bounds are passed on as bounds.

Sequence of Human complement C1s enzyme (P09871 438-688 limits assumed): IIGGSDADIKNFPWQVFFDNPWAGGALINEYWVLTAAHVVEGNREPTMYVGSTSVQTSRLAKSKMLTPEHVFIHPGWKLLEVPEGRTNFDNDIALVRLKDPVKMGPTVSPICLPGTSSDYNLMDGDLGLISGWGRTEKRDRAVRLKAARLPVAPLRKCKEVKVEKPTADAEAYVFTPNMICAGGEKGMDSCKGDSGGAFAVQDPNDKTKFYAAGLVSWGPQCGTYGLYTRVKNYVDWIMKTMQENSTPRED
Sequence of Human complement C1s enzyme (P09871 16-437 partner limits assumed): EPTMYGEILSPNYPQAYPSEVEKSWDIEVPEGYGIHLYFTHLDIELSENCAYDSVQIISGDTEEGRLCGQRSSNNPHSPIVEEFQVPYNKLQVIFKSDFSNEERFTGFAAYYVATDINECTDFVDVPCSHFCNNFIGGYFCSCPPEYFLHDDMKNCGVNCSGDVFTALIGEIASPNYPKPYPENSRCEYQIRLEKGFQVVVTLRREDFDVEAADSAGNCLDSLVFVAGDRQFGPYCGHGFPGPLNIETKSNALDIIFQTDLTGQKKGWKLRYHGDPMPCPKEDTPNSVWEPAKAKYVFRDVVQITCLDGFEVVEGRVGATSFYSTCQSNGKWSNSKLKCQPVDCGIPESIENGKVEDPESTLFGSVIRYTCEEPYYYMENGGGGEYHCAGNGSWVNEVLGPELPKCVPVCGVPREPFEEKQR

This experiment addresses Human complement C1s enzyme (Homo sapiens (Human), UniProt P09871). Kind of experiment: Human C1s enzyme assay. The experiment is classed as biochemical. The note with it: Human C1s enzyme assay of Example 3; read-out: IC50 (Stars). The gist of the method: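 Purified serum-derived human C1s (1.16 nM final) preincubated 5 min at room temperature with compound in 50 mM Tris, 1 M NaCl, pH 7.5. Z-L-Lys-SBzl thioester substrate and DTNB added (100 μM each, final); A405 read every 30 s for 30 min. IC50 from nonlinear regression of reaction rates against compound concentration.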
Broadly, the IC50 is the concentration that gives 50% inhibition. As for `C[C@@H](NC(=O)[C@@H]1CC2(CN1C(=O)CNC(=O)c1ccc3c(c1)-c1ccccc1-3)OCCO2)c1cc(C(=N)N)cs1` [Compound 95, (S)-7-((biphenylene-2-carbonyl)glycyl)-N—((R)-1-(4-carbamimidoylthiophen-2-yl)ethyl)-1,4-dioxa-7-azaspiro[4.4]nonane-8-carboxamide], the IC50 was less than 100 nM. With `C[C@@H](NC(=O)[C@@H]1CC2(CN1C(=O)CNC(=O)c1ccc3c(c1)-c1ccccc1C3(F)F)OCCO2)c1cc(-c2c[nH]cn2)cs1` [Compound 96, (S)—N—((R)-1-(4-(1H-imidazol-4-yl)thiophen-2-yl)ethyl)-7-((9,9-difluoro-9H-fluorene-3-carbonyl)glycyl)-1,4-dioxa-7-azaspiro[4.4]nonane-8-carboxamide] the figure was 100 to 1000 nM; with `C[C@@H](NC(=O)[C@@H]1CC2(CN1C(=O)CNC(=O)c1ccc3c(c1)-c1ccccc1C3(F)F)OCCO2)c1cc(-c2cc[nH]n2)cs1` [Compound 97, (S)—N—((R)-1-(4-(1H-pyrazol-3-yl)thiophen-2-yl)ethyl)-7-((9,9-difluoro-9H-fluorene-3-carbonyl)glycyl)-1,4-dioxa-7-azaspiro[4.4]nonane-8-carboxamide], greater than 1000 nM; with `C[C@@H](NC(=O)[C@@H]1C[C@H](C2CCCCC2)CN1C(=O)CNC(=O)c1ccc2c(c1)-c1ccccc1C2(F)F)c1cc(C(=N)N)cs1` [Compound 98, (2S,4R)—N—((R)-1-(4-carbamimidoylthiophen-2-yl)ethyl)-4-cyclohexyl-1-((9,9-difluoro-9H-fluorene-3-carbonyl)glycyl)pyrrolidine-2-carboxamide], less than 100 nM. The result for `CC1c2ccccc2-c2cc(C(=O)NCC(=O)N3CC4(C[C@H]3C(=O)N[C@H](C)c3cc(C(=N)N)cs3)OCCO4)ccc21` (stereo partly drawn) [Compound 99, (8S)—N-[(1R)-1-(4-carbamimidoylthiophen-2-yl)ethyl]-7-{2-[(9-methyl-9H-fluoren-3-yl)formamido]acetyl}-1,4-dioxa-7-azaspiro[4.4]nonane-8-carboxamide] reads less than 100 nM. As for `C[C@@H](NC(=O)[C@@H]1CC2(CN1C(=O)CNC(=O)c1ccc3c(c1)-c1ccccc1C3(F)F)OCCO2)c1cc(-c2cnc(N)nc2)cs1` [Compound 100, (S)—N—((R)-1-(4-(2-aminopyrimidin-5-yl)thiophen-2-yl)ethyl)-7-((9,9-difluoro-9H-fluorene-3-carbonyl)glycyl)-1,4-dioxa-7-azaspiro[4.4]nonane-8-carboxamide], the IC50 is greater than 1000 nM. In the case of `C[C@@H](NC(=O)[C@@H]1CC2(CN1C(=O)CNC(=O)c1ccc(-c3ccc(F)cc3)cc1)OCCO2)c1cc(C(=N)N)cs1` [Compound 101, (S)—N—((R)-1-(4-carbamimidoylthiophen-2-yl)ethyl)-7-((4′-fluoro-[1,1′-biphenyl]-4-carbonyl)glycyl)-1,4-dioxa-7-azaspiro[4.4]nonane-8-carboxamide], the half-maximal inhibitory concentration (IC50) is less than 100 nM.

On to `Cc1ccc(-c2cnc(C(=O)NCC(=O)N3CC4(C[C@H]3C(=O)NCc3cc(C(=N)N)cs3)OCCO4)c(F)c2)cc1` [Compound 102, (S)—N-((4-carbamimidoylthiophen-2-yl)methyl)-7-((3-fluoro-5-(p-tolyl)picolinoyl)glycyl)-1,4-dioxa-7-azaspiro[4.4]nonane-8-carboxamide], for which the IC50 was less than 100 nM. As for `Nc1cccc(-c2csc(CNC(=O)[C@@H]3CC4(CN3C(=O)CNC(=O)c3ccc(Oc5ccc(F)cc5)cc3)OCCO4)c2)n1` [Compound 103, (S)—N-((4-(6-aminopyridin-2-yl)thiophen-2-yl)methyl)-7-((4-(4-fluorophenoxy)benzoyl)glycyl)-1,4-dioxa-7-azaspiro[4.4]nonane-8-carboxamide], the 50% inhibitory concentration (IC50) was greater than 1000 nM. With `Cn1ccc2cc(-c3ccc(C(=O)NCC(=O)N4CC5(C[C@H]4C(=O)NCc4cc(C(=N)N)cs4)OCCO5)cc3)ccc21` [Compound 104, (S)—N-((4-carbamimidoylthiophen-2-yl)methyl)-7-((4-(1-methyl-1H-indol-5-yl)benzoyl)glycyl)-1,4-dioxa-7-azaspiro[4.4]nonane-8-carboxamide] the figure was less than 100 nM.

Turning to `N=C(N)c1csc(CNC(=O)[C@@H]2CC3(CN2C(=O)CNC(=O)c2ncc(-c4ccccc4)cc2F)OCCO3)c1` [Compound 105, (S)—N-((4-carbamimidoylthiophen-2-yl)methyl)-7-((3-fluoro-5-phenylpicolinoyl)glycyl)-1,4-dioxa-7-azaspiro[4.4]nonane-8-carboxamide], the IC50 is less than 100 nM. For `C[C@@H](NC(=O)[C@@H]1C[C@](F)(COCCNC(=O)CC[C@H](NC(=O)CCCCCCCCCCCCCCCCC(=O)O)C(=O)O)CN1C(=O)CNC(=O)c1ccc(Oc2ccc(F)cc2)cc1)c1cc(C(=N)N)cs1` [Compound 106, 18-(((S)-4-((2-(((3R,5S)-5-(((R)-1-(4-carbamimidoylthiophen-2-yl)ethyl)carbamoyl)-3-fluoro-1-((4-(4-fluorophenoxy)benzoyl)glycyl)pyrrolidin-3-yl)methoxy)ethyl)amino)-1-carboxy-4-oxobutyl)amino)-18-oxooctadecanoic acid], the IC50 was less than 100 nM.

For the compound `N=C(N)c1csc(CNC(=O)[C@@H]2CC3(CN2C(=O)CNC(=O)c2ccc(-c4ccc(F)cc4F)cc2)OCCO3)c1` [Compound 107, (S)—N-((4-carbamimidoylthiophen-2-yl)methyl)-7-((2′,4′-difluoro-[1,1′-biphenyl]-4-carbonyl)glycyl)-1,4-dioxa-7-azaspiro[4.4]nonane-8-carboxamide], the half-maximal inhibitory concentration (IC50) was less than 100 nM.

Turning to `Cc1ccc(-c2ccc(C(=O)NCC(=O)N3CC4(C[C@H]3C(=O)NCc3cc(C(=N)N)cs3)OCCO4)cc2)cc1` [Compound 108, (S)—N-((4-carbamimidoylthiophen-2-yl)methyl)-7-((4′-methyl-[1,1′-biphenyl]-4-carbonyl)glycyl)-1,4-dioxa-7-azaspiro[4.4]nonane-8-carboxamide], the IC50 is less than 100 nM. The result for `C[C@@H](NC(=O)[C@@H]1CC2(CN1C(=O)CNC(=O)c1cccc(-c3ccccc3)c1)OCCO2)c1cc(C(=N)N)cs1` [Compound 109, (S)-7-(([1,1′-biphenyl]-3-carbonyl)glycyl)-N—((R)-1-(4-carbamimidoylthiophen-2-yl)ethyl)-1,4-dioxa-7-azaspiro[4.4]nonane-8-carboxamide] reads less than 100 nM. For `CC1c2ccccc2-c2cc(C(=O)NCC(=O)N3CC4(C[C@H]3C(=O)NCc3cc(C(=N)N)cs3)OCCO4)ccc21` (stereo partly drawn) [Compound 110, (8S)—N-((4-carbamimidoylthiophen-2-yl)methyl)-7-((9-methyl-9H-fluorene-3-carbonyl)glycyl)-1,4-dioxa-7-azaspiro[4.4]nonane-8-carboxamide], the IC50 was less than 100 nM. Regarding `C[C@@H](NC(=O)[C@@H]1CC2(CN1C(=O)CNC(=O)c1ccc3c(c1)-c1ccccc1C3)OCCO2)c1cc(C(=N)N)cs1` [Compound 111, (S)-7-((9H-fluorene-3-carbonyl)glycyl)-N—((R)-1-(4-carbamimidoylthiophen-2-yl)ethyl)-1,4-dioxa-7-azaspiro[4.4]nonane-8-carboxamide], the IC50 was less than 100 nM. For `C[C@@H](NC(=O)[C@@H]1CC2(CN1C(=O)CNC(=O)c1cccc(-c3ccc(F)cc3)c1)OCCO2)c1cc(C(=N)N)cs1` [Compound 112, (S)—N—((R)-1-(4-carbamimidoylthiophen-2-yl)ethyl)-7-((4′-fluoro-[1,1′-biphenyl]-3-carbonyl)glycyl)-1,4-dioxa-7-azaspiro[4.4]nonane-8-carboxamide], the IC50 was less than 100 nM. With `C[C@@H](NC(=O)[C@@H]1CC2(CN1C(=O)CNC(=O)c1ccc3c(c1)-c1ccccc1C3(F)F)OCCO2)c1cc(-c2ncco2)cs1` [Compound 113, (S)-7-((9,9-difluoro-9H-fluorene-3-carbonyl)glycyl)-N—((R)-1-(4-(oxazol-2-yl)thiophen-2-yl)ethyl)-1,4-dioxa-7-azaspiro[4.4]nonane-8-carboxamide] the figure was greater than 1000 nM.

With `C[C@@H](NC(=O)[C@@H]1CC2(CN1C(=O)CNC(=O)c1ccc3c(c1)-c1ccccc1C3(F)F)OCCO2)c1cc(-c2nccs2)cs1` [Compound 114, (S)-7-((9,9-difluoro-9H-fluorene-3-carbonyl)glycyl)-N—((R)-1-(4-(thiazol-2-yl)thiophen-2-yl)ethyl)-1,4-dioxa-7-azaspiro[4.4]nonane-8-carboxamide], the concentration for half-maximal inhibition (IC50) is greater than 1000 nM. For the compound `Cc1cc(C(=O)NCC(=O)N2CC3(C[C@H]2C(=O)NCc2cc(C(=N)N)cs2)OCCO3)ccc1-c1ccccc1` [Compound 115, (S)—N-((4-carbamimidoylthiophen-2-yl)methyl)-7-((2-methyl-[1,1′-biphenyl]-4-carbonyl)glycyl)-1,4-dioxa-7-azaspiro[4.4]nonane-8-carboxamide], the IC50 is less than 100 nM. For `N=C(N)c1csc(CNC(=O)[C@@H]2CC3(CN2C(=O)CNC(=O)c2ccc(-c4ccc(C(F)(F)F)cc4)cc2)OCCO3)c1` [Compound 116, (S)—N-((4-carbamimidoylthiophen-2-yl)methyl)-7-((4′-(trifluoromethyl)-[1,1′-biphenyl]-4-carbonyl)glycyl)-1,4-dioxa-7-azaspiro[4.4]nonane-8-carboxamide], the half-inhibitory concentration (IC50) was less than 100 nM. The result for `Cc1ccccc1[C@H]1C[C@@H](C(=O)N[C@H](C)c2cc(C(=N)N)cs2)N(C(=O)CNC(=O)c2ccc3c(c2)-c2ccccc2C3(F)F)C1` [Compound 119, (2S,4R)—N—((R)-1-(4-carbamimidoylthiophen-2-yl)ethyl)-1-((9,9-difluoro-9H-fluorene-3-carbonyl)glycyl)-4-(o-tolyl)pyrrolidine-2-carboxamide] reads less than 100 nM. With `Cc1ccc(-c2cccc(C(=O)NCC(=O)N3CC4(C[C@H]3C(=O)N[C@H](C)c3cc(C(=N)N)cs3)OCCO4)c2)cc1` [Compound 120, (S)—N—((R)-1-(4-carbamimidoylthiophen-2-yl)ethyl)-7-((4′-methyl-[1,1′-biphenyl]-3-carbonyl)glycyl)-1,4-dioxa-7-azaspiro[4.4]nonane-8-carboxamide] the figure was less than 100 nM.
